From patent US9803223B2, “Coryneform bacterium transformant with improved aniline productivity and process for producing aniline using the same” (RESEARCH INSTITUTE OF INNOVATIVE TECHNOLOGY FOR THE EARTH, priority 2013, dated 2017)
“Also recorded” adds a separate entry of the source.

Key:
Escherichia coli HST02 = experiment: Growth inhibition experiment in aerobic culture, influence of aniline; format: cell-based; details: for growth of Escherichia coli HST02: aerobic culture 37° C., OD610
Description: A growth inhibition experiment in aerobic culture was performed to examine the influence of aniline on Escherichia coli.
Escherichia coli HST02 was applied to LB agar medium (1% polypeptone, 0.5% yeast extract, 0.5% NaCl and 1.5% agar) and was left stand in the dark at 37° C. for 15 hours.
An inoculation loop of the Escherichia coli HST02 grown on a plate as above was inoculated into a test tube containing 10 mL of LB liquid medium (1% polypeptone, 0.5% yeast extract, and 0.5% NaCl), and aerobic culture was performed with shaking at 37° C. for 13 hours.
The Escherichia coli HST02 grown in the above conditions was inoculated into 100 mL of LB liquid medium in such a way that the initial bacterial cell concentration would be OD610=0.1, aniline was added at the same time in such a way that the final concentration would be 0, 20, 40, 60, or 80 mM, and aerobic culture was performed with shaking at 37° C. The growth of the bacterial cells was determined by absorbance measurement at OD610. […] The vertical axis of FIG. 2 indicates OD610.

[1] = test system: Corynebacterium glutamicum R; experiment: Influence of aniline addition on aerobic growth; format: cell-based; details: for growth of Corynebacterium glutamicum: aerobic culture 33° C., OD610
Description: Corynebacterium glutamicum R was applied to A agar medium (2 g of (NH2)2CO3 7 g of (NH4)2SO4, 0.5 g of KH2PO4, 0.5 g of K2HPO4, 0.5 g of MgSO4.7H2O, 1 mL of 0.06% (w/v) Fe2SO4.7H2O+0.042% (w/v) MnSO4.2H2O, 1 mL of 0.02% (w/v) biotin solution, 2 mL of 0.01% (w/v) thiamin solution, 2 g of yeast extract, 7 g of vitamin assay casamino acid, 40 g of glucose, and 15 g of agar were suspended in 1 L of distilled water) and was left stand in the dark at 33° C. for 15 hours.
An inoculation loop of the Corynebacterium glutamicum R grown on a plate as above was inoculated into a test tube containing 10 mL of A liquid medium (2 g of (NH2)2CO3 7 g of (NH4)2SO4, 0.5 g of KH2PO4, 0.5 g of K2HPO4, 0.5 g of MgSO4.7H2O, 1 mL of 0.06% (w/v) Fe2SO4.7H2O+0.042% (w/v) MnSO4.2H2O, 1 mL of 0.02% (w/v) biotin solution, 2 mL of 0.01% (w/v) thiamin solution, 2 g of yeast extract, 7 g of vitamin assay casamino acid, and 40 g of glucose were suspended in 1 L of distilled water) and was aerobically cultured with shaking at 33° C. for 15 hours.
The Corynebacterium glutamicum R grown in the above conditions was inoculated into 10 mL of A liquid medium in such a way that the initial bacterial cell concentration would be OD610=0.1, aniline was added at the same time in such a way that the final concentration would be 0, 20, 40, 60, or 80 mM, and aerobic culture was performed with shaking at 33° C. The growth of the bacterial cells was determined by absorbance measurement at OD610.
The vertical axis of FIG. 3 indicates OD610.

Nc1ccccc1 [aniline]
growth of Escherichia coli HST02 (Escherichia coli HST02; 20 mM aniline): notably inhibited | growth of Escherichia coli HST02 (Escherichia coli HST02; 40 mM aniline): significantly inhibited; also recorded: significantly affected | growth of Escherichia coli HST02 (Escherichia coli HST02; 60 mM aniline): completely inhibited | growth of Escherichia coli (Escherichia coli HST02; aniline level of 20 mM or higher, aerobic culture): greatly affected | growth of Corynebacterium glutamicum ([1]; 40 mM aniline): hardly affected | growth of Corynebacterium glutamicum ([1]; 60 mM aniline): able to grow | growth of coryneform bacterium ([1]; aniline level increased up to 60 mM, aerobic culture): can grow
